Reference: patent publication US7071173B2, “Antiviral methods employing double esters of 2′, 3′-dideoxy-3′-fluoroguanosine” (Medivir AB, priority 1998, dated 2006)
Read-outs that look alike come from different tables or passages of the source.

Experiments:
[1] = rat, in vivo, po
Procedure: At 30, 60, 120, 240 & 360 minutes, 0.2 ml blood were collected, centrifuged and frozen for later analysis. […] Aliquots comprising 40–100 μl of each plasma sample are mixed with an equal volume of acetonitrile (10 seconds, Vibrofex). The sample is centrifuged (2 min, 14000 RPM) and 30 μl of the supernatant is injected into an HPLC system, as follows.

[2] = Rat pharmacokinetics: FLG in serum after oral prodrug, absolute oral bioavailability; conditions: in vivo
Excerpt: (§1) Biomed. Anal. 13, 369–376.

[3] = Rat bioavailability of the indanolic ring hydroxy prodrug, mother compound in plasma by LC-MS; assay type: in vivo, rats
Procedure: Bioavailability of the ring indanolic ring hydroxy compound of Example B-1 was assessed in rats by the procedure of Biological Example 5 also using a propylene glycol vehicle, 58 mg/kg (0.047 mmol/kg), but wherein the mother compound N1, N6-di [(1S,2R)-2-hydroxy-2,3-dihydro-1-H-1-indenyl]-(2R, 3R, 5R)-2,5-di(benzyloxy)-3,4-dihydroxyhexanediamide was assayed by LC-MS using SiM (single ion monitoring) with M/Z ion detector 653. Plasma results are presented as μM in the table below: […]

HIV-1111B TIBO^r = experiment: XTT dye uptake assay utilising MT4 cells; assay type: cell-based, HIV-1; conditions: Human immunodeficiency virus 1, MT4, read-out: IC50, concentration of metabolite inducing 50% inhibition of viral replication
Excerpt: (§2) In the XTT dye uptake assay of Koshida et al Antimicrob Agents Chemother.

HIV-1111B = experiment: XTT dye uptake assay utilising MT4 cells; assay type: cell-based, HIV-1; conditions: Human immunodeficiency virus 1, MT4, read-out: IC50, concentration of metabolite inducing 50% inhibition of viral replication
Excerpt: as §2

SIVSM = experiment: XTT dye uptake assay utilising MT4 cells; assay type: cell-based, SIV; conditions: Simian immunodeficiency virus, read-out: IC50, concentration of metabolite inducing 50% inhibition of viral replication
Excerpt: as §2

[4] = Protein binding in serum samples; assay type: in vitro ADME
Excerpt: as §1

[5] = system: duck hepatitis B virus (DHBV); experiment: DHBV model in ducks, serum DHBV DNA by dot blot-hybridisation; assay type: in vivo
Excerpt: The activity of antivirals on duck hepatitis B virus (DHBV) in ducks is an acknowledged animal model for the validation of in vivo hepatitis B activity in humans. […] The results are depicted in FIGS. […] The ducks were two days old when inoculated with DHBV and 18 days old when treatment was commenced. The metabolite and PBS (controls) were given intraperitoneally for 10 days as twice daily injections, at 8 am and 4 pm. Treatment lasted 33 days and the animals were followed 5 weeks after the end of treatment.
The efficacy of treatment was followed by dot blot-hybridisation of DHBV DNA in serum using a radioactive probe and the amount of DHBV measured as the amount of radioactivity hybridised. FIG. 1 plots the amount of DHBV DNA in serum at different timepoints before, during and after treatment.

[6] = FLG itself; **literature value; cited from earlier work
[7] = Weight gain of treated DHBV-infected ducks (toxicity); assay type: in vivo
Excerpt: The activity of antivirals on duck hepatitis B virus (DHBV) in ducks is an acknowledged animal model for the validation of in vivo hepatitis B activity in humans. […] The ducks were two days old when inoculated with DHBV and 18 days old when treatment was commenced. […] Treatment lasted 33 days and the animals were followed 5 weeks after the end of treatment.

[8] = Bioavailability of FLG as detected by the present inventors; conditions: in vivo; FLG itself
Excerpt: International patent application no. […] The former compound FLG is very active in vitro however the present inventors have detected that its bioavailability is so poor-around 4%-that the in vivo utility of the compound has thus far been limited to intraperitoneally or subcutaneously administered animal models.

HIV-2SBL6669 = experiment: XTT dye uptake assay utilising MT4 cells; assay type: cell-based; conditions: Human immunodeficiency virus 2, read-out: IC50, concentration of metabolite inducing 50% inhibition of viral replication
Excerpt: as §2

HIV-1^29/9 = experiment: XTT dye uptake assay utilising MT4 cells; assay type: cell-based; conditions: Human immunodeficiency virus 1, read-out: IC50, concentration of metabolite inducing 50% inhibition of viral replication
Excerpt: as §2

HIV-1^2441 AZT^r = experiment: XTT dye uptake assay utilising MT4 cells; assay type: cell-based; conditions: Human immunodeficiency virus 1, MT4, read-out: IC50, concentration of metabolite inducing 50% inhibition of viral replication
Excerpt: as §2

**Q.** Which “Bioavailability0–6 hours” value [1] does the source give for `CCC(=O)c1ccc(F)c([C@@H]2C[C@@H]2NC(=O)Nc2ccc(C#N)cn2)c1OCOC(=O)[C@@H](N)[C@@H](C)CC` (relative stereo) [Example P-1, (1S. 2S)-N-{cis-2-[6-fluoro-2-(L-isoleucyloxymethyloxy)-3-propionylphenyl]cyclopropyl}-N′-[2-(5-cyanopyridyl)]urea] here?
**A.** Its value is 34%.

**Q.** For `CC(C)[C@H](N)C(=O)OCC(COC(=O)[C@@H](N)C(C)C)CC(=O)OC[C@H]1O[C@@H](n2cnc3c(=O)[nH]c(N)nc32)C[C@@H]1F` [Example 26, 2′, 3′-Dideoxy-3′-fluoro-5′-O-[3,3-bis(L-valyloxymethyl)-propionic acid] guanosine], which “12 h absolute bioavail. %” value [2] is on record?
**A.** Its value is 67.5%.

**Q.** For `CCCCCCCCCCCCCCCCCC(=O)OC(COC(=O)[C@@H](N)C(C)C)C(=O)OC[C@H]1O[C@@H](n2cnc3c(=O)[nH]c(N)nc32)C[C@@H]1F` (some centres unmarked) [Example 25], which “6 h absolute bioavail. %” value [2] is on record?
**A.** The value was 81.5%.

**Q.** Which bioavailability ([3]; rats, same assay, comparator dosed itself) does the source give for `CC(C)C(N)C(=O)OC1Cc2ccccc2C1NC(=O)[C@H](OCc1ccccc1)C(O)C(O)[C@@H](OCc1ccccc1)C(=O)N[C@H]1c2ccccc2CC1OC(=O)C(N)C(C)C` (some centres unmarked) here?
**A.** The bioavailability was “below the level of detection”.

**Q.** For `CCCCCCCCCCCCCCCCCC(=O)OCC(COC(=O)[C@@H](N)C(C)C)CC(=O)OC[C@H]1O[C@@H](n2cnc3c(=O)[nH]c(N)nc32)C[C@@H]1F` (some centres unmarked) [Example 13], which “6 h absolute bioavail. %” value [2] is on record?
**A.** Its value is 37%.

**Q.** Which IC50 (HIV-1111B TIBO^r) does the source give for `Nc1nc2c(ncn2[C@H]2C[C@H](F)[C@@H](CO)O2)c(=O)[nH]1` [FLG, 2′,3′-dideoxy, 3′-fluoroguanosine] here?
**A.** The IC50 was 1 µg/mL.

**Q.** What about the IC50 (HIV-1111B) of the same compound?
**A.** The IC50 was 1 µg/mL.

**Q.** And the IC50 (SIVSM)?
**A.** Its IC50 is 1 µg/mL.

**Q.** And the protein binding [4]?
**A.** Its protein binding is “neglible”.

**Q.** What about the “inhibition of DHBV in vivo” value ([5]; 0.3 mg/kg/day) of the same compound?
**A.** Its value is “considerable inhibition of DHBV in vivo”.

**Q.** And the “amount of DHBV DNA in serum during treatment” value ([5]; 5 mg/kg/day intraperitoneally, twice daily injections)?
**A.** The value was “dramatic decrease in the amount of DHBV in serum during the first 10 days of treatment, whereupon for the remainder of treatment the level of DHBV DNA was below the detection limit”.

**Q.** What about the “DHBV in serum after the finish of treatment” value ([5]; after the finish of treatment, followed 5 weeks) of the same compound?
**A.** The value was “virus reappeared in the serum”.

**Q.** And the “serum DHBV DNA during treatment” value ([5]; repeat experiments at 30 and 3 mg/kg/day and with congenitally infected ducks)?
**A.** The value was “dramatic fall in serum DHBV DNA to under the detection threshold”.

**Q.** What about the “12 h absolute bioavail. %” value [6] of the same compound?
**A.** Its value is 9%**.

**Q.** And the “weight of the ducks during treatment” value ([7]; 5 mg/kg/day, compared with PBS treated controls)?
**A.** Its value is “increased in the same way as in the control”.

**Q.** What about the “toxicity judged from growth rate” value ([7]; ducks, treatment period) of the same compound?
**A.** Its value is “clearly non-toxic”.

**Q.** And the bioavailability [8]?
**A.** The bioavailability was ~4%.

**Q.** And the IC50 (HIV-2SBL6669)?
**A.** The IC50 was 2 µg/mL.

**Q.** What about the IC50 (HIV-1^29/9) of the same compound?
**A.** Its IC50 is 0.7 µg/mL.

**Q.** What about the IC50 (HIV-1^2441 AZT^r) of the same compound?
**A.** Its IC50 is 1 µg/mL.

**Q.** For `O=C(N[C@H]1c2ccccc2C[C@H]1O)[C@H](OCc1ccccc1)C(O)[C@@H](O)[C@@H](OCc1ccccc1)C(=O)N[C@H]1c2ccccc2C[C@H]1O` (stereo partly drawn) [mother compound, N1, N6-di [(1S,2R)-2-hydroxy-2,3-dihydro-1-H-1-indenyl]-(2R, 3R, 5R)-2,5-di(benzyloxy)-3,4-dihydroxyhexanediamide], which bioavailability ([3]; rat, in vivo) is on record?
**A.** Its bioavailability is “below level of detection”.

**Q.** Which “6 h absolute bioavail. %” value [2] does the source give for `CC(C)[C@H](N)C(=O)OCC(COC(=O)[C@@H](N)C(C)C)OC(=O)CCC(=O)OC[C@H]1O[C@@H](n2cnc3c(=O)[nH]c(N)nc32)C[C@@H]1F` [Example 29, 2′, 3′-Dideoxy-3′-fluoro-5′-O-3-[1,3-bis-(L-valyloxy]-2-propyloxycarbonylpropanoyl]guanosine] here?
**A.** Its value is 51%.

**Q.** With `CCCCCCCCCCCCCCCCCC(=O)OCC(CCCC(=O)OC[C@H]1O[C@@H](n2cnc3c(=O)[nH]c(N)nc32)C[C@@H]1F)COC(=O)[C@@H](N)C(C)C` (stereo partly drawn) [Example 12, 2′ 3′-dideoxy-3′-fluoro-5′-O-[5-(L-valyloxymethyl)-6-stearoyloxyhexanoyl]guanosine] as the compound, how does the “6 h absolute bioavail. %” value [2] read?
**A.** Its value is 29%.
